Results taken from US12503461B2, “Pesticidally active heterocyclic derivatives with sulfur and sulfoximine containing substituents” (SYNGENTA CROP PROTECTION AG, priority 2019, dated 2025).

Tests used:
Type in all cases: in vivo
[1] = system: Diabrotica balteata (Corn Root Worm); test: Example B1: Diabrotica balteata (corn root worm), sprayed maize sprouts on agar, L2 larvae; conditions: 96 h, application rate of 200 ppm, 4 days after infestation, in comparison to untreated samples, read-out: effect in at least one of the two categories (mortality or growth inhibition)
Protocol: Example B1: Diabrotica balteata (Corn Root Worm
Maize sprouts placed onto an agar layer in 24-well microtiter plates were treated with aqueous test solutions prepared from 10′000 ppm DMSO stock solutions by spraying. After drying, the plates were infested with L2 larvae (6 to 10 per well). The samples were assessed for mortality and growth inhibition in comparison to untreated samples 4 days after infestation.

[2] = system: Plutella xylostella (Diamond Back Moth); test: Example B4: Plutella xylostella (diamond back moth), treated artificial diet, eggs; conditions: 192 h, application rate of 200 ppm, 8 days after infestation, in comparison to untreated samples, read-out: effect in at least one of the two categories (mortality or growth inhibition)
Protocol: Example B4: Plutella xylostella (Diamond Back Moth
24-well microtiter plates with artificial diet were treated with aqueous test solutions prepared from 10′000 ppm DMSO stock solutions by pipetting. After drying, Plutella eggs were pipetted through a plastic stencil onto a gel blotting paper and the plate was closed with it. The samples were assessed for mortality and growth inhibition in comparison to untreated samples 8 days after infestation.

[3] = system: Spodoptera littoralis (Egyptian Cotton Leaf Worm); test: Example B7: Spodoptera littoralis (Egyptian cotton leaf worm), sprayed cotton leaf discs, L1 larvae; conditions: foliar, 72 h, application rate of 200 ppm, 3 days after infestation, in comparison to untreated samples
Protocol: Example B7: Spodoptera littoralis (Egyptian Cotton Leaf Worm
Cotton leaf discs were placed onto agar in 24-well microtiter plates and sprayed with aqueous test solutions prepared from 10′000 ppm DMSO stock solutions. After drying the leaf discs were infested with five L1 larvae. The samples were assessed for mortality, anti-feeding effect, and growth inhibition in comparison to untreated samples 3 days after infestation. Control of Spodoptera littoralis by a test sample is given when at least one of the categories mortality, anti-feedant effect, and growth inhibition is higher than the untreated sample.

| Structure (SMILES) | percent effect (mortality or growth inhibition) at 200 ppm [1] | percent effect (mortality or growth inhibition) at 200 ppm [2] | percent control (mortality, anti-feeding effect or growth inhibition) at 200 ppm [3] |
| --- | --- | --- | --- |
| CCS(=O)(=O)c1cc(N(C)C(C)=O)cnc1-c1nc2cc(S(=N)(=O)C(F)(F)F)ccc2o1 (stereo not shown) [P4, N-[5-ethylsulfonyl-6-[5-(trifluoromethylsulfonimidoyl)-1,3-benzoxazol-2-yl]-3-pyridyl]-N-methyl-acetamide] | ≥ 80% | ≥ 80% | ≥ 80% |
| CCN=S(=O)(c1ccc2oc(-c3ncc(-n4ccc(C(F)(F)F)n4)cc3S(=O)(=O)CC)nc2c1)C(F)(F)F (stereo not shown) [P5, ethylimino-[2-[3-ethylsulfonyl-5-[3-(trifluoromethyl)pyrazol-1-yl]-2-pyridyl]-1,3-benzoxazol-5-yl]-oxo-(trifluoromethyl)-λ^6-sulfane] | ≥ 80% | ≥ 80% | – |
| CCS(=O)(=O)c1cc(-n2ccc(C(F)(F)F)n2)cnc1-c1nc2cc(S(=N)(=O)C(F)(F)F)ccc2o1 (stereo not shown) [P6, [2-[3-ethylsulfonyl-5-[3-(trifluoromethyl)pyrazol-1-yl]-2-pyridyl]-1,3-benzoxazol-5-yl]-imino-oxo-(trifluoromethyl)-λ^6-sulfane] | ≥ 80% | ≥ 80% | ≥ 80% |
| CCS(=O)(=O)c1cccnc1-c1nc2cc(S(=O)(=NCC(F)(F)F)C(F)(F)F)ccc2o1 (stereo not shown) [P14, [2-(3-ethylsulfonyl-2-pyridyl)-1,3-benzoxazol-5-yl]-oxo-(2,2,2-trifluoroethylimino)-(trifluoromethyl)-λ^6-sulfane] | ≥ 80% | ≥ 80% | ≥ 80% |
| CCS(=O)(=O)c1cccnc1-c1nc2cc(S(=O)(=NC#N)C(F)(F)F)ccc2o1 (stereo not shown) [P15, [[2-(3-ethylsulfonyl-2-pyridyl)-1,3-benzoxazol-5-yl]-oxo-(trifluoromethyl)-λ^6-sulfanylidene]cyanamide] | ≥ 80% | ≥ 80% | – |
| CCS(=O)(=O)c1cc(OCC(F)(F)F)cnc1-c1nc2cc(S(=N)(=O)C(F)(F)F)ccc2o1 (stereo not shown) [P23, [2-[3-ethylsulfonyl-5-(2,2,2-trifluoroethoxy)-2-pyridyl]-1,3-benzoxazol-5-yl]-imino-oxo-(trifluoromethyl)-λ^6-sulfane] | ≥ 80% | ≥ 80% | ≥ 80% |
| CCS(=O)(=O)c1cc(C2(C#N)CC2)cnc1-c1nc2cc(S(=O)(=NCC(F)(F)F)C(F)(F)F)ccc2o1 (stereo not drawn) [P28, 1-[5-ethylsulfonyl-6-[5-[N-(2,2,2-trifluoroethyl)-S-(trifluoromethyl)sulfonimidoyl]-1,3-benzoxazol-2-yl]-3-pyridyl]cyclopropanecarbonitrile] | ≥ 80% | ≥ 80% | ≥ 80% |
| CCS(=O)(=O)c1cc(C2(C#N)CC2)cnc1-c1nc2cc(S(=O)(=NC3CC3)C(F)(F)F)ccc2o1 (stereo not drawn) [P30, 1-[6-[5-[N-cyclopropyl-S-(trifluoromethyl)sulfonimidoyl]-1,3-benzoxazol-2-yl]-5-ethylsulfonyl-3-pyridyl]cyclopropanecarbonitrile] | ≥ 80% | ≥ 80% | ≥ 80% |
| CCS(=O)(=O)c1cc(-n2ccc(Cl)n2)cnc1-c1nc2cc(S(=N)(=O)C(F)(F)F)ccc2o1 (stereo not shown) [P37, [2-[5-(3-chloropyrazol-1-yl)-3-ethylsulfonyl-2-pyridyl]-1,3-benzoxazol-5-yl]-imino-oxo-(trifluoromethyl)-λ^6-sulfane] | ≥ 80% | ≥ 80% | ≥ 80% |
| CCN=S(=O)(c1ccc2oc(-c3ncc(-n4ccc(Cl)n4)cc3S(=O)(=O)CC)nc2c1)C(F)(F)F (stereo not shown) [P38, [2-[5-(3-chloropyrazol-1-yl)-3-ethylsulfonyl-2-pyridyl]-1,3-benzoxazol-5-yl]-ethylimino-oxo-(trifluoromethyl)-λ^6-sulfane] | ≥ 80% | ≥ 80% | ≥ 80% |
| CCN=S(=O)(c1ccc2oc(-c3nc(-n4cncn4)ccc3S(=O)(=O)CC)nc2c1)C(F)(F)F (stereo not shown) [P39, ethylimino-[2-[3-ethylsulfonyl-6-(1,2,4-triazol-1-yl)-2-pyridyl]-1,3-benzoxazol-5-yl]-oxo-(trifluoromethyl)-λ^6-sulfane] | ≥ 80% | – | – |
| CCN=S(=O)(c1ccc2oc(-c3ncc(-c4nccc(C(F)(F)F)n4)cc3S(=O)(=O)CC)nc2c1)C(F)(F)F (stereo not shown) [P41, ethylimino-[2-[3-ethylsulfonyl-5-[4-(trifluoromethyl)pyrimidin-2-yl]-2-pyridyl]-1,3-benzoxazol-5-yl]-oxo-(trifluoromethyl)-λ^6-sulfane] | ≥ 80% | ≥ 80% | ≥ 80% |
| CCN=S(=O)(c1ccc2oc(-c3ncc(-c4ncc(Cl)cn4)cc3S(=O)(=O)CC)nc2c1)C(F)(F)F (stereo not shown) [P43, [2-[5-(5-chloropyrimidin-2-yl)-3-ethylsulfonyl-2-pyridyl]-1,3-benzoxazol-5-yl]-ethylimino-oxo-(trifluoromethyl)-λ^6-sulfane] | ≥ 80% | ≥ 80% | ≥ 80% |
| CCS(=O)(=O)c1ccc(-n2cnc(Cl)n2)nc1-c1nc2cc(S(=N)(=O)C(F)(F)F)ccc2n1C (stereo not shown) [P46, [2-[6-(3-chloro-1,2,4-triazol-1-yl)-3-ethylsulfonyl-2-pyridyl]-1-methyl-benzimidazol-5-yl]-imino-oxo-(trifluoromethyl)-λ^6-sulfane] | ≥ 80% | ≥ 80% | ≥ 80% |
| CCN=S(=O)(c1ccc2c(c1)nc(-c1nc(-n3cnc(Cl)n3)ccc1S(=O)(=O)CC)n2C)C(F)(F)F (stereo not shown) [P47, [2-[6-(3-chloro-1,2,4-triazol-1-yl)-3-ethylsulfonyl-2-pyridyl]-1-methyl-benzimidazol-5-yl]-ethylimino-oxo-(trifluoromethyl)-λ^6-sulfane] | ≥ 80% | ≥ 80% | ≥ 80% |
| CCS(=O)(=O)c1ccc(-n2cnc(C(F)(F)F)n2)nc1-c1nc2cc(S(=N)(=O)C(F)(F)F)ccc2n1C (stereo not shown) [P48, [2-[3-ethylsulfonyl-6-[3-(trifluoromethyl)-1,2,4-triazol-1-yl]-2-pyridyl]-1-methyl-benzimidazol-5-yl]-imino-oxo-(trifluoromethyl)-λ^6-sulfane] | ≥ 80% | ≥ 80% | ≥ 80% |
| CCN=S(=O)(c1ccc2c(c1)nc(-c1nc(-n3cnc(C(F)(F)F)n3)ccc1S(=O)(=O)CC)n2C)C(F)(F)F (stereo not shown) [P49, ethylimino-[2-[3-ethylsulfonyl-6-[3-(trifluoromethyl)-1,2,4-triazol-1-yl]-2-pyridyl]-1-methyl-benzimidazol-5-yl]-oxo-(trifluoromethyl)-λ^6-sulfane] | ≥ 80% | ≥ 80% | ≥ 80% |
| CCS(=O)(=O)c1ccc(-c2ncccn2)nc1-c1nc2cc(S(=N)(=O)C(F)(F)F)ccc2o1 (stereo not shown) [P54, [2-(3-ethylsulfonyl-6-pyrimidin-2-yl-2-pyridyl)-1,3-benzoxazol-5-yl]-imino-oxo-(trifluoromethyl)-λ^6-sulfane] | ≥ 80% | ≥ 80% | ≥ 80% |
| CCN=S(=O)(c1ccc2oc(-c3nc(-c4ncccn4)ccc3S(=O)(=O)CC)nc2c1)C(F)(F)F (stereo not shown) [P55, ethylimino-[2-(3-ethylsulfonyl-6-pyrimidin-2-yl-2-pyridyl)-1,3-benzoxazol-5-yl]-oxo-(trifluoromethyl)-λ^6-sulfane] | ≥ 80% | ≥ 80% | ≥ 80% |
| CCS(=O)(=O)c1ccc(-n2cncn2)nc1-c1nc2cc(S(=N)(=O)C(F)(F)F)ccc2o1 (stereo not shown) [P56, [2-[3-ethylsulfonyl-6-(1,2,4-triazol-1-yl)-2-pyridyl]-1,3-benzoxazol-5-yl]-imino-oxo-(trifluoromethyl)-λ^6-sulfane] | ≥ 80% | ≥ 80% | – |
